Results: patent US11414379B2, “SPAK kinase inhibitors as neuroprotective agents” (United States Government as represented by the Department …, priority 2018, dated 2022)
Where two headings read alike, the source gives them in different places.

Legend:
[1] = biological target: T1, SPAK-WNK1 interaction (Homo sapiens, UniProt Q9UEW8); experiment: Co-immunoprecipitation of WNK1 with SPAK from HEK293 cell lysates; type: binding; settings: 30 min on ice
T1 construct: Non-transfected HEK293 cell lysates; endogenous in cells; host or cells: HEK293 (non-transfected) lysate
From the text: Referring to FIG. 6, evidence that SPAK associates with WNK1, and interaction is disrupted by SPAK CCT mutation is shown. […] Immunoprecipitates were subjected to immunoblot probed with antibody to total WNK1 and antibody to total SPAK.

[2] = set-up: species or system ICR mice; settings: ICR, mouse, in vivo
Procedure: Referring to Table 3, ZT-1a pharmacokinetics were determined following a single 5 mg/kg intravenous (IV) dose and a single 10 mg/kg oral (PO) dose in ICR mice (N=3 at each time point). Blood samples were collected at 0.08, 0.25, 0.5, 1, 2, 4, 8, 10 & 24 hr (IV) & 0.25, 0.5, 1, 2, 4, 8, 10 & 24 hr (PO) post dose. Samples were subjected to drug assay by LC-MS/MS, and data were analyzed by WinNonlin V6.3. Tmax=time of maximum plasma concentration, Cmax=maximum plasma concentration, AUC=area under the curve (measure of exposure), T1/2=half life, CL=plasma clearance, Vz=volume of distribution, MRT, mean residence time; F=oral bioavailability.

[3] = ZT-1a content in brain and plasma, sham vs tMCAO mice, LC-MS/MS; type: in vivo, mouse; settings: 2 hrs post-injection
Procedure: ZT-1a content in brain homogenates and plasma was assayed at the University of Pittsburgh Small Molecule Biomarker Core, using liquid chromatography-tandem mass spectrometry (LC-MS/MS). C57BL/6j mice (normotensive male, 11 weeks old) at 3 hr post Sham surgery or tMCAO were intraperitoneally injected with 5 mg/kg ZT-1a. At 2 hr post injection, blood was collected into heparin-treated EP tubes by a cardiac puncture. After a brief cardiac perfusion with ice-cold normal saline, brain tissues (contralateral and ipsilateral hemispheres) were collected. Plasma samples were prepared by centrifugation of whole blood for 10 min at 1,500 g using a refrigerated centrifuge. Brain tissues and plasma samples were diluted, and protein was precipitated with acetonitrile prior to detection of ZT-1a with a triple quad mass spectrometer. Glyburide was used as the internal standard. Samples were then injected by autosampler and ZT-1a was eluted from a Waters Acquity UPLC BEH C18, 1.7 um, 2.1×100 mm reversed-phase column with a water (with 0.1% formic acid) and acetonitrile (with 0.1% formic acid) gradient.

[4] = biological target: BTK (Homo sapiens, UniProt Q06187); experiment: Kinase panel (Dundee profiling); type: biochemical; settings: read-out: % residual kinase activity
Summary of the method: (§1)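 Radioisotopic enzymatic activity assay across a panel of 140 recombinant kinases, with test compound at 10 and 1 μM. Values are % residual kinase activity relative to DMSO control, mean±SEM, n=3.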

[5] = biological target: EPH-B4 (Homo sapiens, UniProt P54760); experiment: Kinase panel (Dundee profiling); type: biochemical; settings: read-out: % residual kinase activity
Summary of the method: as §1

[6] = biological target: ERK1 (Homo sapiens, UniProt P27361); experiment: Kinase panel (Dundee profiling); type: biochemical; settings: read-out: % residual kinase activity
Summary of the method: as §1

[7] = biological target: HIPK1 (Homo sapiens, UniProt Q86Z02); experiment: Kinase panel (Dundee profiling); type: biochemical; settings: read-out: % residual kinase activity
Summary of the method: as §1

[8] = biological target: HIPK2 (Homo sapiens, UniProt Q9H2X6); experiment: Kinase panel (Dundee profiling); type: biochemical; settings: read-out: % residual kinase activity
Summary of the method: as §1

[9] = biological target: IGF-1R (Homo sapiens, UniProt P08069); experiment: Kinase panel (Dundee profiling); type: biochemical; settings: read-out: % residual kinase activity
Summary of the method: as §1

[10] = biological target: IKKb (Homo sapiens, UniProt O14920); experiment: Kinase panel (Dundee profiling); type: biochemical; settings: read-out: % residual kinase activity
Summary of the method: as §1

[11] = biological target: MAP4K5 (Homo sapiens, UniProt Q9Y4K4); experiment: Kinase panel (Dundee profiling); type: biochemical; settings: read-out: % residual kinase activity
Summary of the method: as §1

[12] = biological target: PHK (Homo sapiens, UniProt Q16816); experiment: Kinase panel (Dundee profiling); type: biochemical; settings: read-out: % residual kinase activity
Summary of the method: as §1

[13] = biological target: SIK2 (Homo sapiens, UniProt Q9H0K1); experiment: Kinase panel (Dundee profiling); type: biochemical; settings: read-out: % residual kinase activity
Summary of the method: as §1

[14] = biological target: VEG-FR (Homo sapiens, UniProt P17948); experiment: Kinase panel (Dundee profiling); type: biochemical; settings: read-out: % residual kinase activity
Summary of the method: as §1

[15] = biological target: p38g MAPK (Homo sapiens, UniProt P53778); experiment: Kinase panel (Dundee profiling); type: biochemical; settings: read-out: % residual kinase activity
Summary of the method: as §1

p38g MAPK, sequence (P53778 whole entry): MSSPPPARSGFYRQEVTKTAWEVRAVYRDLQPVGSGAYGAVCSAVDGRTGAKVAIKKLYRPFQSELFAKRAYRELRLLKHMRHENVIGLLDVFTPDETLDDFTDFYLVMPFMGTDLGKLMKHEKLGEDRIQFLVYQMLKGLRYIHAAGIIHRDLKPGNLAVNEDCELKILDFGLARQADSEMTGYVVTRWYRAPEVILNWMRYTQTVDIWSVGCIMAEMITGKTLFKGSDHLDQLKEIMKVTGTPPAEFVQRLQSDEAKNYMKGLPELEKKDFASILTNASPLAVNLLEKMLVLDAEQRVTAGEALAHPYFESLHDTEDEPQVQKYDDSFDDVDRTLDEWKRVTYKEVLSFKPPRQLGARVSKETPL
HIPK2, sequence (Q9H2X6 whole entry, species assumed): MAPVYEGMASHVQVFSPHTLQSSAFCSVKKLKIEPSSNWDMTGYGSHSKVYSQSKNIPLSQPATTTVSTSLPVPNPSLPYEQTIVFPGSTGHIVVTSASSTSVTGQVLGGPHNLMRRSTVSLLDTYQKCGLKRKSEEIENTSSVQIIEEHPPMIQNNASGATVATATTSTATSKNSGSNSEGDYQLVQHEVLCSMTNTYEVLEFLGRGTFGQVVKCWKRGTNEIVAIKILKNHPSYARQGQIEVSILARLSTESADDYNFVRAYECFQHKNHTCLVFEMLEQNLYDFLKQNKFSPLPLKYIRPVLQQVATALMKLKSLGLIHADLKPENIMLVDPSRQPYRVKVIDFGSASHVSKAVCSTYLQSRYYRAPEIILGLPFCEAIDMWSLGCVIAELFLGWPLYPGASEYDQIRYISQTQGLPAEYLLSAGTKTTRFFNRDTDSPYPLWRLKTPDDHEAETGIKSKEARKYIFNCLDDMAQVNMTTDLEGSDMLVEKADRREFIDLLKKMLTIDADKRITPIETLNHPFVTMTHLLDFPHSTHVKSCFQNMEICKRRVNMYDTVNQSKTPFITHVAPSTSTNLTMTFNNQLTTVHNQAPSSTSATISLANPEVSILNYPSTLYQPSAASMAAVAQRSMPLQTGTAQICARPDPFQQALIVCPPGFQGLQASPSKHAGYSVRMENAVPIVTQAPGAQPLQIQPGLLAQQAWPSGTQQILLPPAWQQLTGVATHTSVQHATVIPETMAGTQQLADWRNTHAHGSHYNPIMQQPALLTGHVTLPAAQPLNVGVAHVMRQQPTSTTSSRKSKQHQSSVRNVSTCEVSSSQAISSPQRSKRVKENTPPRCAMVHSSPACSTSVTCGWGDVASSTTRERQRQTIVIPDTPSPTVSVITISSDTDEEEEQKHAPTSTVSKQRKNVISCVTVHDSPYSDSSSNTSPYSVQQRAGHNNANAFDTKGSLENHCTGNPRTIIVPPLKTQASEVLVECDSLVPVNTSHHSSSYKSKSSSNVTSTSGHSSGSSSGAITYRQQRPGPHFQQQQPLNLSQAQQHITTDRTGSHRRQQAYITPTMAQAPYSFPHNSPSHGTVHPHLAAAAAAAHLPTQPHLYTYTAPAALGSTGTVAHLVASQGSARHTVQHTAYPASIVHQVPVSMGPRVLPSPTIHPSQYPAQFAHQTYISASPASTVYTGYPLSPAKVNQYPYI
SIK2, sequence (Q9H0K1 whole entry, species assumed): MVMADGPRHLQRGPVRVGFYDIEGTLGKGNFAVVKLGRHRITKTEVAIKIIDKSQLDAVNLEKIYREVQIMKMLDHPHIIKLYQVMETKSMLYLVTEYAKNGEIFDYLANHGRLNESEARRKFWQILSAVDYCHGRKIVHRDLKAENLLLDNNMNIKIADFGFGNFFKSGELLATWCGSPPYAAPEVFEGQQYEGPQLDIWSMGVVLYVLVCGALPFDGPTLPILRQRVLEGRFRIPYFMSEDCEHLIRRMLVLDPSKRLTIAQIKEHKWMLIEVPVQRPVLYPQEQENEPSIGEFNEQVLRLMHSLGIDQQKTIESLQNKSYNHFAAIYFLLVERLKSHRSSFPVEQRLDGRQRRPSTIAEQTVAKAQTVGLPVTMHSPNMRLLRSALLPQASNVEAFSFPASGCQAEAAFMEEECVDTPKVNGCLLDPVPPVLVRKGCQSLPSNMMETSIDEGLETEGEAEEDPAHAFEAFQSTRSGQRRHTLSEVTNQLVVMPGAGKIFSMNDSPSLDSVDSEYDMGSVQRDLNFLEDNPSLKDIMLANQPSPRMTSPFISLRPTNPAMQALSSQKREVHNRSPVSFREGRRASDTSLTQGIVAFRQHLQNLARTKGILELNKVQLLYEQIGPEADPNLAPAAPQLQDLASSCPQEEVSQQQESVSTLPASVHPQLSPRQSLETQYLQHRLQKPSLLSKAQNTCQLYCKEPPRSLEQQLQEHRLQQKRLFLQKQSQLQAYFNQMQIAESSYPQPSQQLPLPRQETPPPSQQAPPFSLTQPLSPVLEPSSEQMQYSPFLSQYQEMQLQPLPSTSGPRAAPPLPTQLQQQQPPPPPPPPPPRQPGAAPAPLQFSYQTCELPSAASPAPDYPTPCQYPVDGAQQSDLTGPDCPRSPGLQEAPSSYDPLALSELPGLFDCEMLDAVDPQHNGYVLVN
IKKb, sequence (O14920 whole entry, species assumed): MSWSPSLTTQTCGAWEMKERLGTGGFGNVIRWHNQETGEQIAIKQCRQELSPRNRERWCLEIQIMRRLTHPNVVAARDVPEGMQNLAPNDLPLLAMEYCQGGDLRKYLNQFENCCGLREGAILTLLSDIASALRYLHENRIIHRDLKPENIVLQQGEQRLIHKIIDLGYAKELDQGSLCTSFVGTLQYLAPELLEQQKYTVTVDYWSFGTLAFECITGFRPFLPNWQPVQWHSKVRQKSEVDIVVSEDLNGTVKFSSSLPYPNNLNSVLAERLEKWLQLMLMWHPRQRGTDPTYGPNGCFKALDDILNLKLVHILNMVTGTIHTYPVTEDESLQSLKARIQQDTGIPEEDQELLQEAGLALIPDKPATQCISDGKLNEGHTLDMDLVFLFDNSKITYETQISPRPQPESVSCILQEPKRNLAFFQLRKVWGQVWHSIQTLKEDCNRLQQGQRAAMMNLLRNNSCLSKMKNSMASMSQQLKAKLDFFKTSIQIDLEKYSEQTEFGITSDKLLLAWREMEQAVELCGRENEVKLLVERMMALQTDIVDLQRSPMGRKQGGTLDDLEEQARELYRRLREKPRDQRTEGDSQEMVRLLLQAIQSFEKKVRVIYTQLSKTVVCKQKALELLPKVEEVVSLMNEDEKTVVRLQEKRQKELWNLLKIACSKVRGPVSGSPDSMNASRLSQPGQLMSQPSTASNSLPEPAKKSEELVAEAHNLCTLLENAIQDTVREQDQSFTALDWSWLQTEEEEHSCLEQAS
PHK, sequence (Q16816 whole entry): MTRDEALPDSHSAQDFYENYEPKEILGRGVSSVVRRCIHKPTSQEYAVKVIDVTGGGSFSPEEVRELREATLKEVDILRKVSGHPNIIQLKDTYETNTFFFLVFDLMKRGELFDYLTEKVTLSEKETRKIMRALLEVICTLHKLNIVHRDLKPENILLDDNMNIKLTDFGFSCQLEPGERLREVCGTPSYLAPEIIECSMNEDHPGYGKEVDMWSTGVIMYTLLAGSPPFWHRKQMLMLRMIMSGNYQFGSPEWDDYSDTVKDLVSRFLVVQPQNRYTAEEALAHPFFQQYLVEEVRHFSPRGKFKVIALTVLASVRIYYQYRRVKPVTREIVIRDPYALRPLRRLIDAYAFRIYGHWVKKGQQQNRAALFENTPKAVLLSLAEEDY
EPH-B4, sequence (P54760 16-987, species assumed): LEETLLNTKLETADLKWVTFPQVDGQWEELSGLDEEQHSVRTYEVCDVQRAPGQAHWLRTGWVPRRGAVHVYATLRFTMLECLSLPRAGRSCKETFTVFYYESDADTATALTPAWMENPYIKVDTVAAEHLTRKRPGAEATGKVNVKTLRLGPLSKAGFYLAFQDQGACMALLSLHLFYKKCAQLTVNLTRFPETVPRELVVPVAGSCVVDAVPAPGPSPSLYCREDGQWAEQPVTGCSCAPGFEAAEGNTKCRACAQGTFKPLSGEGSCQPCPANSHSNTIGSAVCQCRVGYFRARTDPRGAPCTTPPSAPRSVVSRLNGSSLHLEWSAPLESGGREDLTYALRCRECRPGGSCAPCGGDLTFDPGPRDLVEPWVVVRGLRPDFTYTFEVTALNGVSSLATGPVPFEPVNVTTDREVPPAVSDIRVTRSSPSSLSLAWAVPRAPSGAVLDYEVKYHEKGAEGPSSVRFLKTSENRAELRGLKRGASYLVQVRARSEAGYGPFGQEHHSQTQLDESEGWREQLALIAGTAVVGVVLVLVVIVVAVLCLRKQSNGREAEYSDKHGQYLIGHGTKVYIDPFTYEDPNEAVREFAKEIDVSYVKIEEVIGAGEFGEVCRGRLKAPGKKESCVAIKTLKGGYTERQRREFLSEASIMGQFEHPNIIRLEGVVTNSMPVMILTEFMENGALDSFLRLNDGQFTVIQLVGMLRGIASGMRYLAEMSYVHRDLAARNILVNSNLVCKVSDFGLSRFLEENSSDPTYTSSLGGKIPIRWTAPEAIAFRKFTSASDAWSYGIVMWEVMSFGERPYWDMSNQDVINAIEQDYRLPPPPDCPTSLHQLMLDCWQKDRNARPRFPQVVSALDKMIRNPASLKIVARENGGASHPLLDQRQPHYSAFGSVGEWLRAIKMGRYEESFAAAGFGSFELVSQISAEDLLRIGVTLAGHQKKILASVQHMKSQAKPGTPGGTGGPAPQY
ERK1, sequence (P27361 whole entry, species assumed): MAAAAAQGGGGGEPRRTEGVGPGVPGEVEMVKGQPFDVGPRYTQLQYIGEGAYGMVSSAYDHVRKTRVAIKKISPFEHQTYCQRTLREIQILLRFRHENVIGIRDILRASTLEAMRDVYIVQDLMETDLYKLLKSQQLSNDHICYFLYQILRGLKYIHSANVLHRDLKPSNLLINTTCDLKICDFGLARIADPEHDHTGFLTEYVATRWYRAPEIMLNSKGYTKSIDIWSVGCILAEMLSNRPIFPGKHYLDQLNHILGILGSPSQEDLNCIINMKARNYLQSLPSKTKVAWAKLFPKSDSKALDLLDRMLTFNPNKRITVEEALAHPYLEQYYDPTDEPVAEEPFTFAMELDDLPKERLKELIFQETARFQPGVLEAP

In the case of `Cc1cc(C(C#N)c2ccc(Cl)cc2)c(Cl)cc1NC(=O)c1cc(Cl)ccc1O` (stereo not drawn) [ZT-1a, 5-chloro-N-(5-chloro-4-((4-chlorophenyl)(cyano)methyl)-2-methylphenyl)-2-hydroxy-benzamide], the “co-immunoprecipitation of WNK1 with SPAK” value [1] is reported as “potently abolished”, the AUC [2] is reported as 2340 ng·h/mL and the C0 ([2]; iv, 5 mg/kg) is reported as 14900 ng/mL. For the same compound, the Cl ([2]; iv, 5 mg/kg) was 35.5 mL/min/kg, the “MRT(0-∞)” value ([2]; iv, 5 mg/kg) was 0.45 h and the Vz ([2]; iv, 5 mg/kg) was 0.948 L/kg. For the same compound, the “MRT(0-∞)” value ([2]; po, 10 mg/kg) was 3.3 h, the “brain concentrations, stroke mice vs sham-controls” value ([3]; 5 mg/kg i.p. at 3 hrs after tMCAO, n=10-11) was about 1.8 fold and the “plasma bioavailability, sham control vs ischemic stroke mice” value ([3]; 5 mg/kg i.p., p=0.29) was “no significant difference”. The remaining activity at 1 µM ([4]; 1 μM) was 113 ± 1%, the remaining activity at 10 µM ([4]; 10 μM) was 73 ± 2% and the remaining activity at 1 µM ([5]; 1 μM) was 100 ± 8%. It also gave a remaining activity at 10 µM ([5]; 10 μM) of 151 ± 33%, a remaining activity at 1 µM ([6]; 1 μM) of 107 ± 16% and a remaining activity at 10 µM ([6]; 10 μM) of 109 ± 18%. It also gave a remaining activity at 1 µM ([7]; 1 μM) of 98 ± 13%, a remaining activity at 10 µM ([7]; 10 μM) of 90 ± 4% and a remaining activity at 1 µM ([8]; 1 μM) of 90 ± 14%. The remaining activity at 10 µM ([8]; 10 μM) was 91 ± 4%, the remaining activity at 1 µM ([9]; 1 μM) was 145 ± 2% and the remaining activity at 10 µM ([9]; 10 μM) was 123 ± 3%. For the same compound, the remaining activity at 1 µM ([10]; 1 μM) was 101%, the remaining activity at 10 µM ([10]; 10 μM) was 78 ± 3% and the remaining activity at 1 µM ([11]; 1 μM) was 95 ± 28%. For the same compound, the remaining activity at 10 µM ([11]; 10 μM) was 76 ± 9%, the remaining activity at 1 µM ([12]; 1 μM) was 97 ± 3% and the remaining activity at 10 µM ([12]; 10 μM) was 107 ± 2%. For the same compound, the remaining activity at 1 µM ([13]; 1 μM) was 105 ± 16%, the remaining activity at 10 µM ([13]; 10 μM) was 76 ± 8% and the remaining activity at 1 µM ([14]; 1 μM) was 113 ± 10%. The remaining activity at 10 µM ([14]; 10 μM) was 88 ± 28%, the remaining activity at 1 µM ([15]; 1 μM) was 100 ± 11% and the remaining activity at 10 µM ([15]; 10 μM) was 100 ± 6%.
